Consider 9 molecules from patent publication US10760052B2, “Method of inhibiting tau phosphorylation” (priority 2012, dated 2020).

Test [1] deals with VAKGL pentapeptide of filamin A (FLNA) of SEQ ID NO: 1 (Homo sapiens, UniProt P21333). The test is described as follows: FITC-NLX-based FLNA screening assay (inhibition of FITC-naloxone binding to Bn-VAKGL on streptavidin plates). As to conditions: for Percent binding inhibition, preliminary study: 100 nM frozen-stored FITC-NLX, average of two runs; for Binding to FLNA (in words): preliminary study; for Percent Binding Inhibition (FITC-NLX binding): 10 nM FITC-NLX.

For test [2], the target named is T1, mu opiate receptor (MOR) (Rattus norvegicus, UniProt P33535).
T1 construct: from tissue; host or cells: striatum (membrane preparation)
T1 sequence (P33535 whole entry): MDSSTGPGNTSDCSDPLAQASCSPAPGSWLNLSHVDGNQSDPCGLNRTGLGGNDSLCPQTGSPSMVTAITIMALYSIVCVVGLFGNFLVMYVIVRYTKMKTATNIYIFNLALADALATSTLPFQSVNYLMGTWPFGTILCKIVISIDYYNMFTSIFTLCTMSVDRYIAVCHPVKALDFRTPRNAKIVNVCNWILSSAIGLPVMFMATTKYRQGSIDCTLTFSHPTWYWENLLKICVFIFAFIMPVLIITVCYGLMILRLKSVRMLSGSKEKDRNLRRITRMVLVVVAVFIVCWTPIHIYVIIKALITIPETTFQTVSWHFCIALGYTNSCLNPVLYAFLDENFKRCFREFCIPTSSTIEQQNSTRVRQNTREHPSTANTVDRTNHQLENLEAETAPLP
In kind it is biochemical. Particulars: for MOR agonist activity ([35S]GTPγS binding), compound as agonist / MOR agonist activity (in words): preliminary study; for MOR agonist activity ([35S]GTPγS binding), compound as agonist: average of two runs; for Concentration of FLNA-Binding Compound as Agonist 0.1 μM / Concentration of FLNA-Binding Compound as Agonist 1 μM / Concentration of FLNA-Binding Compound as Agonist 1 μM + BFNA: [35S]GTPγS binding to Gαo in striatal membranes; for Concentration of FLNA-Binding Compound as Agonist 0.1 μM: compound 0.1 μM; for Concentration of FLNA-Binding Compound as Agonist 1 μM: compound 1 μM; for Concentration of FLNA-Binding Compound as Agonist 1 μM + BFNA: compound 1 μM plus 1 μM β-funaltrexamine (MOR antagonist). (Binding of GTPγS marks nucleotide exchange on a G protein.)

Where two headings read alike, the source gives them in different places.

As to `C=CCN1CC[C@]23c4c5ccc(O)c4O[C@H]2C(=O)CC[C@]3(O)[C@H]1C5` [(+) NLX, (+)naloxone], the “Percent binding inhibition, preliminary study” value in test [1] (0.1 nM compound) is given as 22.7%; in test [1] (1 nM compound), 22.8%; in test [1] (10 nM compound) it was 23.1%; in test [1] (100 nM compound), 22.8%; in test [1] (1 μM compound), 39.8%.

As for `O=S(=O)(c1ccc(OC(F)(F)F)cc1)N1CCOC12CCN(CC1CC1)CC2` [Compound 4], the “Binding to FLNA (in words)” value in test [1] is on record as “bound well to FLNA”. Further, the “MOR agonist activity ([35S]GTPγS binding), compound as agonist” value (“MOR agonist activity … as agonist” below) was determined as 133.9% in test [2] (0.1 μM), 49.5% in test [2] (1 μM + βNFA) and 165.2% in test [2] (1 μM). In addition, the “MOR agonist activity (in words)” value in test [2] is recorded as “not as potent a MOR agonist”.

With `Cc1ccc(S(=O)(=O)N2CCOC23CCN(CC2CCC2)CC3)cc1` [Compound 9], in test [1], the “Binding to FLNA (in words)” value is “bind well to FLNA”. In addition, the “MOR agonist activity … as agonist” value was determined as 156.6% in test [2] (0.1 μM), 56.6% in test [2] (1 μM + βNFA) and 197.2% in test [2] (1 μM). Besides, the “MOR agonist activity (in words)” value in test [2] was “MOR agonists”.

As to `C=CCN1CCC2(CC1)OCCN2S(=O)(=O)c1ccc(C)cc1` [Compound 10], in test [1], the “Binding to FLNA (in words)” value is “bind well to FLNA”. The “MOR agonist activity … as agonist” value in test [2] (0.1 μM) was 163.1%; in test [2] (1 μM + βNFA) it was 60.4%; in test [2] (1 μM), 191.8%. Moreover, the “MOR agonist activity (in words)” value in test [2] was “MOR agonists”.

Take `CC1CCC(C(C)C)C(OCC(O)CN2CCc3ccccc32)C1` (centres unmarked) [Compound A0065]: in test [1] (0.01 μM FLNA-binding compound), the “Percent Binding Inhibition (FITC-NLX binding)” value was 38.7%. Also, the “Percent Binding Inhibition (FITC-NLX binding)” value in test [1] (0.1 μM FLNA-binding compound) worked out at 50.0%. Further, the “Percent Binding Inhibition (FITC-NLX binding)” value in test [1] (1 μM FLNA-binding compound) is on record as 50.8%. In addition, in test [2], the “% DAMGO (0.1 μM)” value amounted to 126.6%, the “% DAMGO (1 μM)” value was 115.7%, the “% DAMGO + BFNA” value was 112.5% and the “Concentration of FLNA-Binding Compound as Agonist 0.1 μM” value (shortened to “Concentration … as Agonist 0.1 μM”) amounted to 197.6%. Also, in test [2], the “Concentration of FLNA-Binding Compound as Agonist 1 μM” value was found to be 266.8% and the “Concentration of FLNA-Binding Compound as Agonist 1 μM + BFNA” value (“Concentration … as Agonist 1 μM + BFNA” for short) came to 44.9%.

As to `COc1c2c(cc3c1C(CC(=O)c1ccc(F)c(F)c1)[N+](C)(C)CC3)OCO2` (centres unmarked) [Compound B0003], the “Percent Binding Inhibition (FITC-NLX binding)” value in test [1] (0.01 μM FLNA-binding compound) is given as 45.4%. Further, the “Percent Binding Inhibition (FITC-NLX binding)” value in test [1] (0.1 μM FLNA-binding compound) is given as 52.9%. The “Percent Binding Inhibition (FITC-NLX binding)” value in test [1] (1 μM FLNA-binding compound) is listed as 63.5%. In test [2], the “% DAMGO (0.1 μM)” value is reported as 59.9%, the “% DAMGO (1 μM)” value stood at 47.4%, the “% DAMGO + BFNA” value turned out to be 29.0% and the “Concentration … as Agonist 0.1 μM” value stood at 103.0%. Moreover, in test [2], the “Concentration of FLNA-Binding Compound as Agonist 1 μM” value turned out to be 131.1% and the “Concentration … as Agonist 1 μM + BFNA” value was 18.6%.

For `COc1c2c(cc3c1C(CC(O)Cc1ccccc1C)N(C)CC3)OCO2` (centres unmarked) [Compound B0054], in test [1] (0.01 μM FLNA-binding compound), the “Percent Binding Inhibition (FITC-NLX binding)” value is 25.6%. Moreover, the “Percent Binding Inhibition (FITC-NLX binding)” value in test [1] (0.1 μM FLNA-binding compound) was 32.6%. For the same molecule, the “Percent Binding Inhibition (FITC-NLX binding)” value in test [1] (1 μM FLNA-binding compound) was 43.3%. Further, in test [2], the “% DAMGO (0.1 μM)” value worked out at 93.4%, the “% DAMGO (1 μM)” value amounted to 85.3%, the “% DAMGO + BFNA” value was 668.7% and the “Concentration … as Agonist 0.1 μM” value was found to be 157.8%. Moreover, in test [2], the “Concentration of FLNA-Binding Compound as Agonist 1 μM” value is 186.7% and the “Concentration … as Agonist 1 μM + BFNA” value is 111.0%.

For the molecule `O=S(=O)(c1ccc(Oc2ccccc2)cc1)N1CCC2(CC1)OCCN2S(=O)(=O)c1ccc(Oc2ccccc2)cc1` [Compound C0149M], in test [2], the “% DAMGO (0.1 μM)” value was 122.0%, the “% DAMGO (1 μM)” value turned out to be 124.8%, the “% DAMGO + BFNA” value came out at 102.3% and the “Concentration … as Agonist 0.1 μM” value was determined as 209.8%. In test [2], the “Concentration of FLNA-Binding Compound as Agonist 1 μM” value is on record as 406.7% and the “Concentration … as Agonist 1 μM + BFNA” value is 93.4%.

For the molecule `O=S(=O)(c1csc2ccccc12)N1CCC2(CC1)OCCN2S(=O)(=O)c1csc2ccccc12` [Compound C0150M], in test [2], the “% DAMGO (0.1 μM)” value was determined as 97.2%, the “% DAMGO (1 μM)” value is recorded as 129.8%, the “% DAMGO + BFNA” value amounted to 173.2% and the “Concentration … as Agonist 0.1 μM” value is 167.1%. Besides, in test [2], the “Concentration of FLNA-Binding Compound as Agonist 1 μM” value came to 423.1% and the “Concentration … as Agonist 1 μM + BFNA” value was 93.4%.
